We go through three compounds from US20020155565A1, “FAP-activated anti-tumor compounds” (priority 2000, published 2002).

The data set addresses T1, FAP (cell extract from 293 cells stably transfected with FAP) (Homo sapiens, UniProt Q12884).
T1 construct: Cell extract from 293 cells stably transfected with FAP prepared as described; expressed in transfected cells; host or cells: human embryonic kidney 293 cells (clone 293-I/2), vector pFAP.38
T1 sequence (Q12884 1-760): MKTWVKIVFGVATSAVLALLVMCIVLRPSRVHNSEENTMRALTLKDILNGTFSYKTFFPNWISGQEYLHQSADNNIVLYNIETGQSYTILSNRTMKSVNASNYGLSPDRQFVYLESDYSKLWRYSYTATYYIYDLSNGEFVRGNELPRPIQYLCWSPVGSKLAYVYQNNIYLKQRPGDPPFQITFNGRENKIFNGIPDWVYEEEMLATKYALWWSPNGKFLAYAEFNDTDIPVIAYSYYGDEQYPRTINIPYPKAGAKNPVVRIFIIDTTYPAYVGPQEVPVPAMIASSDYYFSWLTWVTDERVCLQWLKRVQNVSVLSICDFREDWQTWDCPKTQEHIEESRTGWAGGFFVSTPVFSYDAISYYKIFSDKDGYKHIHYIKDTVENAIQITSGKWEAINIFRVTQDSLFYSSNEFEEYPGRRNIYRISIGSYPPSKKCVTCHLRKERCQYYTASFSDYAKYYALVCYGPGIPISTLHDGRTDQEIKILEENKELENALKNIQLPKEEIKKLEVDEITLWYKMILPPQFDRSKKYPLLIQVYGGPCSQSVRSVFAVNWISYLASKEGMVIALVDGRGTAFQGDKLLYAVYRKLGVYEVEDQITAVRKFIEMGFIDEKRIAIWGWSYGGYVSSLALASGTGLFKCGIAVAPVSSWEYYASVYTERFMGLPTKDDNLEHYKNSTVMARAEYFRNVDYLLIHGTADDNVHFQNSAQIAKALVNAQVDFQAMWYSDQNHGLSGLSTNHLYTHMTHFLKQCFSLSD
The experiment in a line: Assay for cleavage of AMCA substrates by FAP. To be noted: 1 ng FAP enzyme, 20 μl 2.5 mM substrate in 100 μl, room temperature, 1 hour; FAP-negative 293 control extract subtracted. Type of data set: biochemical. On the procedure:
The turnover and cleavage rate have been determined with the aid pf the following assay:
Assay for cleavage of AMCA substrates by FAP
Cell extract from 293 cells stably transfected with FAP prepared as described (see Park, et al., Fibroblast Activation Protein, a Dual Specificity Serine Protease expressed in human tumor stromal fibroblasts. (1999) J. Biol. Chem. 36505-12.). A similar extract was also prepared from parental 293 control cells without FAP. The FAP concentration in the FAP-transfected cell extract was estimated by immunoassay and 1 ng enzyme (diluted in buffer A) was used per assay. FAP-negative 293 control cell extract was used at the same dilution (also in buffer A) as a negative control. Substrate was initially dissolved in dimethylformamide at a concentration of 200 mM and diluted in buffer A to a final concentration of 2.5 mM. A few substrates were not soluble at this concentration and had to be diluted further.
10 μl 10% DMSO in buffer A
70 μl diluted FAP cell extract containing 1 ng FAP enzyme (OR control 293 cell extract without FAP)
Mix, incubate at room temperature for 1 hour, and measure fluorescence in Fluorostar fluorimeter at the following wavelengths:
AMCA conjugates: Excitation: 390 nm, Emission: 440 nm.
The fluorescence measured in the samples treated with control 293 control cell extracts without FAP is subtracted from the values measured in the samples treated with 1 ng FAP enzyme.

Where a SMILES comes first, the peptide text is derived from it. [ ]: non-standard residue; d: D form. The star is where a group is joined. X1 = Cc1c(CC(=O)O)c(=O)oc2cc(N*)ccc12; Cbz = O=C(OCc1ccccc1)*; NMeA = CN[CH](C)C(=O)O; Sar = CNCC(=O)O

Consider `Cc1c(CC(=O)O)c(=O)oc2cc(NC(=O)CN(C)C(=O)CNC(=O)OCc3ccccc3)ccc12` [Z-Gly-Sar-AMCA, Z-Gly-Sar-AMCA-OH], for which the Cleavage is reported as 0,22 μM and the Turnover is given as 0,044%.
Regarding `Cc1c(CC(=O)O)c(=O)oc2cc(NC(=O)C(C)N(C)C(=O)CNC(=O)C(C)NC(=O)C3CCCN3C(=O)OCc3ccccc3)ccc12` (stereo not drawn) [Z-Pro-Ala-Gly-MeAla-AMCA] (Cbz-PAG[NMeA]-X1; configuration not given here), the Cleavage is recorded as 0,11 μM and the Turnover is 0,044%.
With `Cc1c(CC(=O)O)c(=O)oc2cc(NC(=O)CN(C)C(=O)CNC(=O)C(C)NC(=O)C3CCCN3C(=O)OCc3ccccc3)ccc12` (stereo not drawn) [Z-Pro-Ala-Gly-Sar-AMCA] (Cbz-PAG[Sar]-X1; configuration not given here), the Cleavage is on record as 0,09 μM and the Turnover is given as 0,036%.
